Compound: Cn1c(=O)n(-c2ccc(C(C)(C)C#N)cc2)c2c3cc(-c4cnc5ccccc5c4)ccc3ncc21 [Dactolisib] + CC(=O)Nc1cccc(-n2c(=O)n(C3CC3)c(=O)c3c(Nc4ccc(I)cc4F)n(C)c(=O)c(C)c32)c1 [Trametinib] (partner 0.02 µM)
Assay: relative viability (nuclei count vs DMSO), 5 days (fraction); higher = more cells survive
Conditions: first compound 0.002 µM
In short: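 Relative viability equals treated-well nuclei counts divided by vehicle-well nuclei counts. Counts came from 4× images of lung cancer cell lines grown in 1536-well plates for 5 days after pin-tool dosing on the day after seeding. Dosing used one drug alone or a fixed anchor-drug dose plus five library-drug doses (not always all listed) in √10 steps, and values are medians of duplicate plates.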

Q: BEN was tested. Which relative viability did it give?
A: 0.925

Q: With HARA as the cell line, how does the relative viability read?
A: 0.872

Q: With NCI-H322M as the cell line, how does the relative viability read?
A: 0.583

Q: LCLC-97TM1 was tested. Which relative viability did it give?
A: 0.2

Q: Which relative viability does the source give for NCI-H2009 here?
A: 0.276

Q: A-427 was tested. Which relative viability did it give?
A: 0.669

Q: Which relative viability does the source give for NCI-H441 here?
A: 0.523

Q: NCI-H661 was tested. Which relative viability did it give?
A: 0.552

Q: How did the relative viability turn out when NCI-H1734 was run?
A: 0.69

Q: NCI-H460 was tested. Which relative viability did it give?
A: 0.2

Q: With NCI-H2347 as the cell line, how does the relative viability read?
A: 0.277

Q: For SW 1573, which relative viability is on record?
A: 0.529

Q: For NCI-H1395, which relative viability is on record?
A: 0.867

Q: Which relative viability does the source give for 201T here?
A: 0.73

Q: Which relative viability does the source give for NCI-H1915 here?
A: 0.32

Q: Which relative viability does the source give for HCC-827 here?
A: 0.582

Q: How did the relative viability turn out when LXF-289 was run?
A: 0.709

Q: For NCI-H23, which relative viability is on record?
A: 0.468

Q: With NCI-H647 as the cell line, how does the relative viability read?
A: 0.381

Q: For CAL-12T, which relative viability is on record?
A: 0.343

Q: How did the relative viability turn out when NCI-H1651 was run?
A: 0.816

Q: Which relative viability does the source give for EPLC-272H here?
A: 0.264

Q: How did the relative viability turn out when NCI-H2228 was run?
A: 0.688

Q: Which relative viability does the source give for NCI-H1792 here?
A: 0.498

Q: How did the relative viability turn out when NCI-H1355 was run?
A: 0.45

Q: How did the relative viability turn out when NCI-H3122 was run?
A: 0.207

Q: Which relative viability does the source give for NCI-H1437 here?
A: 0.558

Same assay, conditions: first compound 0.006325 µM

Q: For BEN, which relative viability is on record?
A: 0.952

Q: How did the relative viability turn out when HARA was run?
A: 0.549

Q: How did the relative viability turn out when NCI-H322M was run?
A: 0.561

Q: With LCLC-97TM1 as the cell line, how does the relative viability read?
A: 0.187

Q: With NCI-H2009 as the cell line, how does the relative viability read?
A: 0.272

Q: A-427 was tested. Which relative viability did it give?
A: 0.637

Q: NCI-H441 was tested. Which relative viability did it give?
A: 0.412

Q: NCI-H661 was tested. Which relative viability did it give?
A: 0.483

Q: For NCI-H1734, which relative viability is on record?
A: 0.557

Q: With NCI-H460 as the cell line, how does the relative viability read?
A: 0.0901

Q: Which relative viability does the source give for NCI-H2347 here?
A: 0.262

Q: With SW 1573 as the cell line, how does the relative viability read?
A: 0.438

Q: For NCI-H1395, which relative viability is on record?
A: 0.889

Q: How did the relative viability turn out when 201T was run?
A: 0.713

Q: How did the relative viability turn out when NCI-H1915 was run?
A: 0.296

Q: How did the relative viability turn out when HCC-827 was run?
A: 0.563

Q: LXF-289 was tested. Which relative viability did it give?
A: 0.629

Q: With NCI-H23 as the cell line, how does the relative viability read?
A: 0.361

Q: How did the relative viability turn out when NCI-H647 was run?
A: 0.42

Q: CAL-12T was tested. Which relative viability did it give?
A: 0.312

Q: How did the relative viability turn out when NCI-H1651 was run?
A: 0.825

Q: For EPLC-272H, which relative viability is on record?
A: 0.261

Q: NCI-H2228 was tested. Which relative viability did it give?
A: 0.4

Q: With NCI-H1792 as the cell line, how does the relative viability read?
A: 0.407

Q: Which relative viability does the source give for NCI-H1355 here?
A: 0.37

Q: With NCI-H3122 as the cell line, how does the relative viability read?
A: 0.218

Q: NCI-H1437 was tested. Which relative viability did it give?
A: 0.507

Same assay, conditions: first compound 0.02 µM

Q: For BEN, which relative viability is on record?
A: 0.959

Q: Which relative viability does the source give for HARA here?
A: 0.732

Q: Which relative viability does the source give for NCI-H322M here?
A: 0.447

Q: Which relative viability does the source give for LCLC-97TM1 here?
A: 0.167

Q: NCI-H2009 was tested. Which relative viability did it give?
A: 0.213

Q: Which relative viability does the source give for A-427 here?
A: 0.694

Q: Which relative viability does the source give for NCI-H441 here?
A: 0.43

Q: How did the relative viability turn out when NCI-H661 was run?
A: 0.486

Q: For NCI-H1734, which relative viability is on record?
A: 0.624

Q: Which relative viability does the source give for NCI-H460 here?
A: 0.13

Q: With NCI-H2347 as the cell line, how does the relative viability read?
A: 0.263

Q: SW 1573 was tested. Which relative viability did it give?
A: 0.482

Q: How did the relative viability turn out when NCI-H1395 was run?
A: 0.93

Q: With 201T as the cell line, how does the relative viability read?
A: 0.688

Q: For NCI-H1915, which relative viability is on record?
A: 0.304

Q: Which relative viability does the source give for HCC-827 here?
A: 0.477

Q: With LXF-289 as the cell line, how does the relative viability read?
A: 0.633

Q: For NCI-H23, which relative viability is on record?
A: 0.276

Q: For NCI-H647, which relative viability is on record?
A: 0.291

Q: For CAL-12T, which relative viability is on record?
A: 0.248

Q: For NCI-H1651, which relative viability is on record?
A: 0.822

Q: EPLC-272H was tested. Which relative viability did it give?
A: 0.28

Q: For NCI-H2228, which relative viability is on record?
A: 0.383

Q: With NCI-H1792 as the cell line, how does the relative viability read?
A: 0.267

Q: With NCI-H1355 as the cell line, how does the relative viability read?
A: 0.384

Q: For NCI-H3122, which relative viability is on record?
A: 0.232

Q: For NCI-H1437, which relative viability is on record?
A: 0.487

Same assay, conditions: first compound 0.06325 µM

Q: With BEN as the cell line, how does the relative viability read?
A: 0.61

Q: Which relative viability does the source give for HARA here?
A: 0.259

Q: How did the relative viability turn out when NCI-H322M was run?
A: 0.436

Q: How did the relative viability turn out when LCLC-97TM1 was run?
A: 0.135

Q: How did the relative viability turn out when NCI-H2009 was run?
A: 0.154

Q: Which relative viability does the source give for A-427 here?
A: 0.4

Q: For NCI-H441, which relative viability is on record?
A: 0.217

Q: Which relative viability does the source give for NCI-H661 here?
A: 0.336

Q: For NCI-H1734, which relative viability is on record?
A: 0.374

Q: NCI-H460 was tested. Which relative viability did it give?
A: 0.0463

Q: How did the relative viability turn out when NCI-H2347 was run?
A: 0.158

Q: With SW 1573 as the cell line, how does the relative viability read?
A: 0.144

Q: With NCI-H1395 as the cell line, how does the relative viability read?
A: 0.637

Q: With 201T as the cell line, how does the relative viability read?
A: 0.668

Q: NCI-H1915 was tested. Which relative viability did it give?
A: 0.229

Q: HCC-827 was tested. Which relative viability did it give?
A: 0.313

Q: Which relative viability does the source give for LXF-289 here?
A: 0.559

Q: How did the relative viability turn out when NCI-H23 was run?
A: 0.229

Q: With NCI-H647 as the cell line, how does the relative viability read?
A: 0.118

Q: CAL-12T was tested. Which relative viability did it give?
A: 0.213

Q: For NCI-H1651, which relative viability is on record?
A: 0.599

Q: EPLC-272H was tested. Which relative viability did it give?
A: 0.245

Q: Which relative viability does the source give for NCI-H2228 here?
A: 0.218

Q: How did the relative viability turn out when NCI-H1792 was run?
A: 0.174

Q: NCI-H1355 was tested. Which relative viability did it give?
A: 0.215

Q: How did the relative viability turn out when NCI-H3122 was run?
A: 0.219

Q: With NCI-H1437 as the cell line, how does the relative viability read?
A: 0.369

Same assay, conditions: first compound 0.2 µM

Q: Which relative viability does the source give for BEN here?
A: 0.411

Q: With HARA as the cell line, how does the relative viability read?
A: 0.218

Q: Which relative viability does the source give for NCI-H322M here?
A: 0.44

Q: LCLC-97TM1 was tested. Which relative viability did it give?
A: 0.104

Q: With NCI-H2009 as the cell line, how does the relative viability read?
A: 0.126

Q: A-427 was tested. Which relative viability did it give?
A: 0.369

Q: How did the relative viability turn out when NCI-H441 was run?
A: 0.213

Q: With NCI-H661 as the cell line, how does the relative viability read?
A: 0.337

Q: NCI-H1734 was tested. Which relative viability did it give?
A: 0.25

Q: For NCI-H460, which relative viability is on record?
A: 0.0358

Q: How did the relative viability turn out when NCI-H2347 was run?
A: 0.295

Q: For SW 1573, which relative viability is on record?
A: 0.163

Q: With NCI-H1395 as the cell line, how does the relative viability read?
A: 0.487

Q: With 201T as the cell line, how does the relative viability read?
A: 0.449

Q: NCI-H1915 was tested. Which relative viability did it give?
A: 0.178

Q: Which relative viability does the source give for HCC-827 here?
A: 0.269

Q: Which relative viability does the source give for LXF-289 here?
A: 0.379

Q: How did the relative viability turn out when NCI-H23 was run?
A: 0.179

Q: Which relative viability does the source give for NCI-H647 here?
A: 0.103

Q: Which relative viability does the source give for CAL-12T here?
A: 0.184

Q: With NCI-H1651 as the cell line, how does the relative viability read?
A: 0.452

Q: EPLC-272H was tested. Which relative viability did it give?
A: 0.201

Q: NCI-H2228 was tested. Which relative viability did it give?
A: 0.144

Q: With NCI-H1792 as the cell line, how does the relative viability read?
A: 0.0814

Q: For NCI-H1355, which relative viability is on record?
A: 0.203

Q: NCI-H3122 was tested. Which relative viability did it give?
A: 0.176

Q: Which relative viability does the source give for NCI-H1437 here?
A: 0.292
